Laboratory results from ChEMBL document CHEMBL1201862, “PubChem BioAssay data set” (2004).
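Where inhibition never reached the appropriate level, the endpoint shown equals the highest concentration tested. Otherwise, values were interpolated linearly from a five-concentration, 48-hour dose response in 96-well plates. GI50 marks 50% less growth.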 Calls of active or inactive are those of the source. Cut-off read from the data, not from the text of the source: active = GI50 up to about 1.1 µM and inactive = higher.

What was measured:
Assay in all cases: inhibition of tumour cell growth, NCI panel, 48 h
RXF 393 = test system: RXF 393
HT-29 = test system: HT-29
NCI-H226 = test system: NCI-H226
SK-MEL-2 = test system: SK-MEL-2
Hs-578T = test system: Hs-578T
KM12 = test system: KM12
HOP-62 = test system: HOP-62
A549 = test system: A549
EKVX = test system: EKVX
CAKI-1 = test system: CAKI-1
SF-268 = test system: SF-268
DU-145 = test system: DU-145
HCC 2998 = test system: HCC 2998
NCI-H522 = test system: NCI-H522
U-251 = test system: U-251
786-0 = test system: 786-0
SR = test system: SR
SNB-75 = test system: SNB-75
CCRF-CEM = test system: CCRF-CEM

Row | SMILES | GI50 (RXF 393) | GI50 (HT-29) | GI50 (NCI-H226) | GI50 (SK-MEL-2) | GI50 (Hs-578T) | GI50 (KM12) | GI50 (HOP-62) | GI50 (A549) | GI50 (EKVX) | GI50 (CAKI-1) | GI50 (SF-268) | GI50 (DU-145) | GI50 (HCC 2998) | GI50 (NCI-H522) | GI50 (U-251) | GI50 (786-0) | GI50 (SR) | GI50 (SNB-75) | GI50 (CCRF-CEM)
1 | CC(C)(C)OC(=O)NCCCCC1NC(=O)[C@@H]2Cc3c([nH]c4ccccc34)C(C3CCCCC3)N2C1=O (some centres undefined) | 4.23 µM (inactive) | 28.1 µM (inactive) | 75 µM (inactive) | 26 µM (inactive) | 23.6 µM (inactive) | 23.6 µM (inactive) | 41.4 µM (inactive) | 30.5 µM (inactive) | 33.7 µM (inactive) | 56.6 µM (inactive) | 54.1 µM (inactive) | 54.8 µM (inactive) | 13.9 µM (inactive) | 45.3 µM (inactive) | 31.5 µM (inactive) | 27 µM (inactive) | 15.2 µM (inactive) |  | 
2 | O=C(O)c1cccc(/[As]=[As]\c2cccc(C(=O)O)c2)c1 (centres undefined) | 26.9 µM (inactive) | 49.3 µM (inactive) | 84.9 µM (inactive) | 21.7 µM (inactive) | 33.8 µM (inactive) | > 100 µM (inactive) | 35.2 µM (inactive) | > 100 µM (inactive) | 59.8 µM (inactive) | 16.4 µM (inactive) | 29.3 µM (inactive) | 86.5 µM (inactive) | 57.7 µM (inactive) | 17.9 µM (inactive) | 15.7 µM (inactive) | 24.8 µM (inactive) | 28.7 µM (inactive) | 21.5 µM (inactive) | 21.9 µM (inactive)
3 | COc1ccc(C(=O)Sc2c(-c3ccccc3)c(=O)n(-c3ccccc3)c(=S)n2-c2ccccc2)cc1 | 24.1 µM (inactive) | > 100 µM (inactive) | 5.73 µM (inactive) |  | > 100 µM (inactive) | > 100 µM (inactive) | 34.5 µM (inactive) | 64.1 µM (inactive) | > 100 µM (inactive) | > 100 µM (inactive) | 67.5 µM (inactive) | > 100 µM (inactive) | > 100 µM (inactive) | > 100 µM (inactive) | 47 µM (inactive) | 33.7 µM (inactive) | 25.4 µM (inactive) | > 100 µM (inactive) | 22.3 µM (inactive)
4 | O=S1(=O)OCCOS(=O)(=O)C1(F)Cc1ccccc1 | > 100 µM (inactive) | > 100 µM (inactive) | > 100 µM (inactive) | > 100 µM (inactive) | > 100 µM (inactive) |  | > 100 µM (inactive) | > 100 µM (inactive) | > 100 µM (inactive) | > 100 µM (inactive) | > 100 µM (inactive) | > 100 µM (inactive) | > 100 µM (inactive) | > 100 µM (inactive) | > 100 µM (inactive) | > 100 µM (inactive) | > 100 µM (inactive) | > 100 µM (inactive) | > 100 µM (inactive)
5 | Cc1ccc(C2=Nc3cc(C)c(Cl)cc3S(=O)(=O)NN2)cc1 | 72.1 µM (inactive) | > 100 µM (inactive) | > 100 µM (inactive) |  | > 100 µM (inactive) | > 100 µM (inactive) | > 100 µM (inactive) | 57.8 µM (inactive) | > 100 µM (inactive) | 27.9 µM (inactive) | 82.6 µM (inactive) | > 100 µM (inactive) | > 100 µM (inactive) | > 100 µM (inactive) | > 100 µM (inactive) | 58.1 µM (inactive) | 20 µM (inactive) | > 100 µM (inactive) | 38.5 µM (inactive)
6 | N=C1OC(CN2CCN(c3ccccc3)CC2)CN1C(=O)Nc1ccccc1 (centres undefined) | > 100 µM (inactive) | > 100 µM (inactive) | > 100 µM (inactive) | > 100 µM (inactive) | > 100 µM (inactive) | > 100 µM (inactive) | > 100 µM (inactive) | > 100 µM (inactive) | > 100 µM (inactive) | > 100 µM (inactive) | > 100 µM (inactive) | > 100 µM (inactive) | > 100 µM (inactive) | 39.7 µM (inactive) | > 100 µM (inactive) | > 100 µM (inactive) | 57.7 µM (inactive) |  | 43.3 µM (inactive)
7 | CCOC(=O)c1cc(Br)c(-c2onc(C)c2Br)n1C | 10.2 µM (inactive) |  | 55.2 µM (inactive) | 36.6 µM (inactive) | 10.8 µM (inactive) | 21.8 µM (inactive) | 35.6 µM (inactive) | 23.3 µM (inactive) | 6.08 µM (inactive) | 12.8 µM (inactive) | 75 µM (inactive) | 93.5 µM (inactive) | 85.9 µM (inactive) | 19.1 µM (inactive) | 43.1 µM (inactive) | 25.9 µM (inactive) | 20.5 µM (inactive) | 18.1 µM (inactive) | 30.7 µM (inactive)
8 | O=C(O)CCC(=O)c1ccc2c(c1)C(C(=O)O)CC2 (centres undefined) | 0.286 µM (active) | > 100 µM (inactive) | > 100 µM (inactive) | > 100 µM (inactive) | > 100 µM (inactive) | > 100 µM (inactive) | > 100 µM (inactive) | 0.0902 µM (active) | > 100 µM (inactive) |  | > 100 µM (inactive) | > 100 µM (inactive) | > 100 µM (inactive) | > 100 µM (inactive) | > 100 µM (inactive) | > 100 µM (inactive) | > 100 µM (inactive) |  | 
9 | O=c1cc(NNc2cccc(Cl)c2)[nH]c(=O)[nH]1 | > 100 µM (inactive) | 80.2 µM (inactive) | > 100 µM (inactive) | 42.4 µM (inactive) | > 100 µM (inactive) | 45.5 µM (inactive) |  | > 100 µM (inactive) |  | 19.1 µM (inactive) | > 100 µM (inactive) | 72.3 µM (inactive) | 53 µM (inactive) | 17.5 µM (inactive) | > 100 µM (inactive) | 16.2 µM (inactive) | 4.29 µM (inactive) | 88.5 µM (inactive) | 21.6 µM (inactive)
10 | COc1ccc(C2(CC(C)C)CCNC2)cc1OC (centres undefined) | 41.9 µM (inactive) | 39.1 µM (inactive) | > 100 µM (inactive) | > 100 µM (inactive) | > 100 µM (inactive) | > 100 µM (inactive) | 82.2 µM (inactive) | > 100 µM (inactive) | 86.1 µM (inactive) | > 100 µM (inactive) | 78.7 µM (inactive) | > 100 µM (inactive) | 12.9 µM (inactive) | > 100 µM (inactive) | > 100 µM (inactive) | > 100 µM (inactive) | 76.4 µM (inactive) | 8.18 µM (inactive) | > 100 µM (inactive)
11 | COC(=O)c1c2c(cc3c1CC1(C3)Cc3ccc4c(c3C1=O)CCC4)CCC2 (centres undefined) | 0.537 µM (active) | 2.58 µM (inactive) | 5.09 µM (inactive) | 3.98 µM (inactive) | 1.91 µM (inactive) | 2.64 µM (inactive) | 3.25 µM (inactive) | 4.88 µM (inactive) | 8.17 µM (inactive) | 2.26 µM (inactive) | 6.31 µM (inactive) | 4.65 µM (inactive) | 6.52 µM (inactive) | 1.66 µM (inactive) | 3.33 µM (inactive) | 3.51 µM (inactive) | 1.78 µM (inactive) | 4.33 µM (inactive) | 3.63 µM (inactive)
12 | COc1ccc(C)c2c1N[C@](C)([C@]1(C)Nc3c(OC)ccc(C)c3C1=O)C2=O | > 100 µM (inactive) | > 100 µM (inactive) | > 100 µM (inactive) | > 100 µM (inactive) | 39.3 µM (inactive) | 76.9 µM (inactive) | 94.4 µM (inactive) | > 100 µM (inactive) | > 100 µM (inactive) | > 100 µM (inactive) | 51.6 µM (inactive) | > 100 µM (inactive) | > 100 µM (inactive) | > 100 µM (inactive) | > 100 µM (inactive) | > 100 µM (inactive) | > 100 µM (inactive) |  | > 100 µM (inactive)
13 | CC(=O)OCC(=O)O[C@@H]1[C@H]2[C@@H](OC(=O)c3ccccc3)[C@@H](C)C[C@]2(O)[C@H](OC(C)=O)[C@@]2(C)C[C@]1(OC(C)=O)C[C@H]1C(=O)C(C)(C)[C@@H](OC(C)=O)[C@@H]12 | > 25 µM (inactive) | 9.42 µM (inactive) | > 25 µM (inactive) | > 25 µM (inactive) | 9.55 µM (inactive) | > 25 µM (inactive) | 5.78 µM (inactive) | 3.66 µM (inactive) | 24.8 µM (inactive) | 17.1 µM (inactive) | > 25 µM (inactive) | > 25 µM (inactive) | 9.38 µM (inactive) | > 25 µM (inactive) | > 25 µM (inactive) | > 20 µM (inactive) | > 25 µM (inactive) | 7.71 µM (inactive) | 
14 | C[C@@H]1CC(=O)[C@@]2(C)[C@](O)(CCC3O[C@]32C)[C@@]12CC(c1ccoc1)OC2=O (some centres undefined) | 31.8 µM (inactive) | 48.5 µM (inactive) | > 100 µM (inactive) | > 100 µM (inactive) | 33.8 µM (inactive) | > 100 µM (inactive) |  | > 100 µM (inactive) | > 100 µM (inactive) | 91 µM (inactive) |  | > 100 µM (inactive) | > 100 µM (inactive) | 45.6 µM (inactive) | > 100 µM (inactive) | 75.7 µM (inactive) | 30.3 µM (inactive) | 23.7 µM (inactive) | 20.5 µM (inactive)
15 | CC1=C[C@@H](C)C[C@]2(C)CC[C@H](O2)[C@]23CC[C@](C(=O)O)(C[C@H](O2)[C@@H]2O[C@@](C)(CC2=O)[C@@H](O)[C@H]2CC[C@@]4(CCC[C@@H](O4)[C@H](C)C(=O)O[C@H]4C[C@H]([C@]5(O)OCC[C@H](C)[C@@H]5O)O[C@H]4C=C1)O2)O3 | > 10 µM (inactive) | > 10 µM (inactive) | > 5.71 µM (inactive) | > 6.85 µM (inactive) | > 3.78 µM (inactive) | > 10 µM (inactive) | > 9.59 µM (inactive) | > 10 µM (inactive) | > 10 µM (inactive) | > 10 µM (inactive) | > 10 µM (inactive) | > 10 µM (inactive) | > 10 µM (inactive) | > 7.71 µM (inactive) | > 10 µM (inactive) | > 10 µM (inactive) | > 10 µM (inactive) | 3.5 µM (inactive) | > 10 µM (inactive)
